Laboratory results: patent publication US10736883B2, “Triazole furan compounds as agonists of the APJ receptor” (AMGEN INC., priority 2016, dated 2020)

These compounds were tested against APJ receptor (Homo sapiens (Human), UniProt P35414) (assay: [35S]GTPγS binding assay on membranes from CHO cells stably expressing human APJ receptor). Details: membranes of CHO cells stably expressing human APJ receptor, means of several independent experiments, read-out: Activity hAPJ SPA EC50 IP.
APJ receptor, sequence (P35414 whole entry): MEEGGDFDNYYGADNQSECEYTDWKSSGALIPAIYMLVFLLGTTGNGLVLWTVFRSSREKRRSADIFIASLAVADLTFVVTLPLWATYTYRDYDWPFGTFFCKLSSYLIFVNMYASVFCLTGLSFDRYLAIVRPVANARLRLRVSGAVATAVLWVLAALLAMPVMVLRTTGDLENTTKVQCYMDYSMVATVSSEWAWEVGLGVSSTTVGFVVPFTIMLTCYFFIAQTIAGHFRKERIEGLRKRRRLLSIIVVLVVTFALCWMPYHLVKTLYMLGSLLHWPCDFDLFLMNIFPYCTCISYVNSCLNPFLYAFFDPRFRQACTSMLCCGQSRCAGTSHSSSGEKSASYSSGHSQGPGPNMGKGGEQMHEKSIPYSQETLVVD
Type: biochemical
In short: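 Membranes from CHO cells stably expressing human APJ were incubated with 0.2 nM [35S]GTPγS and ligands for 90 min at RT in 20 mM HEPES pH 7.5, 5 mM MgCl2, 200 mM NaCl, 3 μM GDP, 0.1% BSA with WGA PS beads. Nonspecific binding was set with 100 μM GTPγS. EC50 came from non-linear regression.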
`COc1cccc(OC)c1-n1c(NS(=O)(=O)[C@H](C)[C@@H](O)c2cn(C)cn2)nnc1-c1ccc(C)o1` (racemic) [Example 283.0, (1R,2S)—N-(4-(2,6-Dimethoxyphenyl)-5-(5-methyl-2-furanyl)-4H-1,2,4-triazol-3-yl)-1-hydroxy-1-(1-methyl-1H-imidazol-4-yl)-2-propanesulfonamide and (1S,2R)—N-(4-(2,6-dimethoxyphenyl)-5-(5-methyl-2-furanyl)-4H-1,2,4-triazol-3-yl)-1-hydroxy-1-(1-methyl-1H-imidazol-4-yl)-2-propanesulfonamide] was tested, and the EC50 was 1.4 nM. For `COc1cccc(OC)c1-n1c(NS(=O)(=O)[C@@H](C)[C@H](O)c2cccc3nccn23)nnc1-c1ccc(C)o1` (single isomer, unassigned) [Example 299.0, (1R,2S)—N-(4-(2,6-Dimethoxyphenyl)-5-(5-methyl-2-furanyl)-4H-1,2,4-triazol-3-yl)-1-hydroxy-1-imidazo[1,2-a]pyridin-5-yl-2-propanesulfonamide or (1S,2R)—N-(4-(2,6-dimethoxyphenyl)-5-(5-methyl-2-furanyl)-4H-1,2,4-triazol-3-yl)-1-hydroxy-1-imidazo[1,2-a]pyridin-5-yl-2-propanesulfonamide], the EC50 was 11 nM. `COc1cccc(OC)c1-n1c(NS(=O)(=O)[C@H](C)[C@@H](O)c2ccc(C#N)c(C)n2)nnc1-c1ccc(C)o1` (racemic) [Example 88.0] was tested, and the EC50 was 0.51 nM. `COc1cccc(OC)c1-n1c(NS(=O)(=O)CCc2ncc(Cl)cc2CCN2CC[C@H](O)C2)nnc1-c1ccco1` [Example 238.0, 2-(5-Chloro-3-(2-((3S)-3-hydroxy-1-pyrrolidinyl)ethyl)-2-pyridinyl)-N-(4-(2,6-dimethoxyphenyl)-5-(2-furanyl)-4H-1,2,4-triazol-3-yl)ethanesulfonamide] gave an EC50 of 0.59 nM. `COc1cccc(OC)c1-n1c(NS(=O)(=O)[C@@H](C)Cc2ncc(Cl)cc2NC(C)=O)nnc1-c1ccco1` (racemic) [Example 13.0, N-(5-chloro-2-((2S)-2-((4-(2,6-dimethoxyphenyl)-5-(2-furanyl)-4H-1,2,4-triazol-3-yl)sulfamoyl)propyl)-3-pyridinyl)acetamide and N-(5-chloro-2-((2R)-2-((4-(2,6-dimethoxyphenyl)-5-(2-furanyl)-4H-1,2,4-triazol-3-yl)sulfamoyl)propyl)-3-pyridinyl)acetamide] showed an EC50 of 0.19 nM. For `COc1cccc(OC)c1-n1c(NS(=O)(=O)[C@@H]2CCCN(C(=O)N(C)C)C2)nnc1-c1ccco1.COc1cccc(OC)c1-n1c(NS(=O)(=O)[C@H]2CCCN(C(=O)N(C)C)C2)nnc1-c1ccco1` (mixture of isomers) [Example 338.0, (R)-3-(N-(4-(2,6-Dimethoxyphenyl)-5-(furan-2-yl)-4H-1,2,4-triazol-3-yl)sulfamoyl)-N,N-dimethylpiperidine-1-carboxamide and (S)-3-(N-(4-(2,6-dimethoxyphenyl)-5-(furan-2-yl)-4H-1,2,4-triazol-3-yl)sulfamoyl)-N,N-dimethylpiperidine-1-carboxamide], the EC50 was 19 nM. For `COc1cccc(OC)c1-n1c(NS(=O)(=O)[C@@H](C)[C@@H](O)c2ccc(C)cn2)nnc1-c1ccc(C)o1` (single isomer, unassigned) [Example 63.0], the EC50 was 0.24 nM. In the case of `COc1cccc(OC)c1-n1c(NS(=O)(=O)[C@H](C)Cc2ncc(Br)cn2)nnc1-c1ccco1` (single isomer, unassigned) [Example 36.0, (2R)-1-(5-bromo-2-pyrimidinyl)-N-(4-(2,6-dimethoxyphenyl)-5-(2-furanyl)-4H-1,2,4-triazol-3-yl)-2-propanesulfonamide or (2S)-1-(5-bromo-2-pyrimidinyl)-N-(4-(2,6-dimethoxyphenyl)-5-(2-furanyl)-4H-1,2,4-triazol-3-yl)-2-propanesulfonamide], the EC50 is reported as 3.5 nM. Work on `COc1cccc(OC)c1-n1c(NS(=O)(=O)[C@@H](C)[C@@H](O)c2cc3ccccn3n2)nnc1-c1ccc(C)o1` (single isomer, unassigned) [Example 271.0, (1S,2S)—N-(4-(2,6-Dimethoxyphenyl)-5-(5-methyl-2-furanyl)-4H-1,2,4-triazol-3-yl)-1-hydroxy-1-pyrazolo[1,5-a]pyridin-2-yl-2-propanesulfonamide or (1R,2R)—N-(4-(2,6-dimethoxyphenyl)-5-(5-methyl-2-furanyl)-4H-1,2,4-triazol-3-yl)-1-hydroxy-1-pyrazolo[1,5-a]pyridin-2-yl-2-propanesulfonamide] yielded an EC50 of 0.62 nM. With `COc1cccc(OC)c1-n1c(NS(=O)(=O)[C@H](C)[C@@H](OC)c2cn3ccccc3n2)nnc1-c1ccc(C)o1` (single isomer, unassigned) [Example 287.0, (1R,2S)—N-(4-(2,6-Dimethoxyphenyl)-5-(5-methyl-2-furanyl)-4H-1,2,4-triazol-3-yl)-1-imidazo[1,2-a]pyridin-2-yl-1-methoxy-2-propanesulfonamide or (1S,2R)—N-(4-(2,6-dimethoxyphenyl)-5-(5-methyl-2-furanyl)-4H-1,2,4-triazol-3-yl)-1-imidazo[1,2-a]pyridin-2-yl-1-methoxy-2-propanesulfonamide] the EC50 was 4.1 nM. Work on `COc1cccc(OC)c1-n1c(NS(=O)(=O)[C@H](C)[C@@H](O)c2ccc(C)cn2)nnc1-c1ccc(C)o1` (single isomer, unassigned) [Example 65.0] yielded an EC50 of 0.31 nM. `COc1cccc(OC)c1-n1c(NS(=O)(=O)[C@H](C)[C@@H](O)c2ncc(F)cn2)nnc1-c1ccc(C)o1` [Example 211.0, (1S,2R)-N-(4-(2,6-dimethoxyphenyl)-5-(5-methylfuran-2-yl)-4H-1,2,4-triazol-3-yl)-1-(5-fluoropyrimidin-2-yl)-1-hydroxypropane-2-sulfonamide] showed an EC50 of 4.1 nM. With `COc1ncnc(OC)c1-n1c(NS(=O)(=O)[C@@H](C)[C@H](C)c2ncc(F)cn2)nnc1-c1ccc(Br)o1` [Example 394.0, (2S,3R)-N-(5-(5-bromo-2-furanyl)-4-(4,6-dimethoxy-5-pyrimidinyl)-4H-1,2,4-triazol-3-yl)-3-(5-fluoro-2-pyrimidinyl)-2-butanesulfonamide] the EC50 was 0.31 nM. Work on `COc1cccc(OC)c1-n1c(NS(=O)(=O)[C@H](C)[C@H](O)c2cccc(C)n2)nnc1-c1ccc(C)o1` (stereo in doubt) [Example 87.0] yielded an EC50 of 0.41 nM. `COc1cccc(OC)c1-n1c(NS(=O)(=O)C[C@@H](C)c2ncc(F)cn2)nnc1-c1ccc(C)o1` (racemic) [Example 127.0, (S)—N-(4-(2,6-Dimethoxyphenyl)-5-(5-methylfuran-2-yl)-4H-1,2,4-triazol-3-yl)-2-(5-fluoropyrimidin-2-yl)propane-1-sulfonamide and (R)—N-(4-(2,6-dimethoxyphenyl)-5-(5-methylfuran-2-yl)-4H-1,2,4-triazol-3-yl)-2-(5-fluoropyrimidin-2-yl)propane-1-sulfonamide] showed an EC50 of 0.65 nM. Compound `COCC[C@@H](Cc1ncc(C)cn1)S(=O)(=O)Nc1nnc(-c2ccc(C)o2)n1-c1c(OC)cccc1OC` (racemic) [Example 76.0, (2R)—N-(4-(2,6-dimethoxyphenyl)-5-(5-methyl-2-furanyl)-4H-1,2,4-triazol-3-yl)-4-methoxy-1-(5-methyl-2-pyrimidinyl)-2-butanesulfonamide and (2S)—N-(4-(2,6-dimethoxyphenyl)-5-(5-methyl-2-furanyl)-4H-1,2,4-triazol-3-yl)-4-methoxy-1-(5-methyl-2-pyrimidinyl)-2-butanesulfonamide] has an EC50 of 0.6 nM.
